Reference: PubChem BioAssay AID192 (DTP/NCI, 2004)
Where “and” joins values, the source holds several entries; their conditions need not be identical. Identical values can stand only once. Toxic doses and inconclusive results are not listed.

Tested on: BDF1 mice, B16 melanoma ip, median survival T/C
Assay: NCI In Vivo Anticancer Drug Screen. Data for tumor model B16 Melanoma (intraperitoneal) in B6D2F1 (BDF1) mice
Conditions: endpoint: median survival time, higher = longer survival
Procedure, shortened: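 Mice with transplantable tumors; drug vs vehicle groups; endpoint survival or tumor size; value = T/C.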

[1] = dose: 6.25 mg/kg/injection, schedule: Q01DX009 (ip), vehicle: saline
[2] = dose: 100.0 mg/kg/injection, schedule: Q01DX009 (ip), vehicle: Klucel (hydroxypropylcellulose) (HPC)
[3] = dose: 200.0 mg/kg/injection, schedule: Q01DX009 (ip), vehicle: Klucel (hydroxypropylcellulose) (HPC)
[4] = dose: 400.0 mg/kg/injection, schedule: Q01DX009 (ip), vehicle: Klucel (hydroxypropylcellulose) (HPC)
[5] = dose: 12.5 mg/kg/injection, schedule: Q01DX009 (ip), vehicle: Klucel (hydroxypropylcellulose) (HPC)
[6] = dose: 25.0 mg/kg/injection, schedule: Q01DX009 (ip), vehicle: Klucel (hydroxypropylcellulose) (HPC)
[7] = dose: 50.0 mg/kg/injection, schedule: Q01DX009 (ip), vehicle: Klucel (hydroxypropylcellulose) (HPC)
[8] = dose: 100.0 mg/kg/injection, schedule: Q01DX009 (ip), vehicle: saline with Tween-80
[9] = dose: 200.0 mg/kg/injection, schedule: Q01DX009 (ip), vehicle: saline with Tween-80
[10] = dose: 50.0 mg/kg/injection, schedule: Q01DX009 (ip), vehicle: saline with Tween-80
[11] = dose: 400.0 mg/kg/injection, schedule: Q01DX009 (ip), vehicle: saline with Tween-80
[12] = dose: 3.12 mg/kg/injection, schedule: Q01DX009 (ip), vehicle: Klucel (hydroxypropylcellulose) (HPC)
[13] = dose: 12.5 mg/kg/injection, schedule: Q01DX009 (ip), vehicle: saline
[14] = dose: 25.0 mg/kg/injection, schedule: Q01DX009 (ip), vehicle: saline
[15] = dose: 3.12 mg/kg/injection, schedule: Q01DX009 (ip), vehicle: saline

With N#CCN(CC#N)CC#N the T/C (dose: 1.56 mg/kg/injection, schedule: Q01DX009 (ip), vehicle: saline) was 97 % of control, the T/C (dose: 3.13 mg/kg/injection, schedule: Q01DX009 (ip), vehicle: saline) was 102 % of control and the T/C (dose: 3.13 mg/kg/injection, schedule: Q04DX003 (ip), vehicle: saline with Tween-80) was 113 % of control. For the same compound, the T/C [1] was 100 % of control and the T/C (dose: 6.25 mg/kg/injection, schedule: Q04DX003 (ip), vehicle: saline with Tween-80) was 94 % of control.

With COC(C(=O)C(O)C(C)O)C1CC2C=C3C=C(OC4CC(OC5CC(O)C(OC)C(C)O5)C(OC(C)=O)C(C)O4)C(C)C(=O)C3=C(O)C2=C(O)C1OC1CC(OC2CC(OC3CC(C)(O)C(O)C(C)O3)C(O)C(C)O2)C(O)C(C)O1 (stereo not drawn) the T/C (dose: 0.25 mg/kg/injection, schedule: Q01DX009 (ip), vehicle: saline with Tween-80) was 108 % of control, the T/C (dose: 0.5 mg/kg/injection, schedule: Q01DX009 (ip), vehicle: saline with Tween-80) was 112 % of control and the T/C (dose: 1.0 mg/kg/injection, schedule: Q01DX009 (ip), vehicle: saline with Tween-80) was 110 % of control and 116 % of control. The T/C (dose: 2.6 mg/kg/injection, schedule: Q01DX009 (ip), vehicle: saline with Tween-80) was 157 % of control, the T/C (dose: 4.0 mg/kg/injection, schedule: Q01DX009 (ip), vehicle: saline with Tween-80) was 154 % of control and 167 % of control and the T/C (dose: 8.0 mg/kg/injection, schedule: Q01DX009 (ip), vehicle: saline with Tween-80) was 165 % of control.

For CC(C)(O)c1cccc2c(C(C)(C)O)cccc12, the T/C [2] was 92 % of control, the T/C [3] was 114 % of control and the T/C [4] was 91 % of control.

For Cc1cccc(NC(=O)Nc2ccc(Cl)cc2)c1C, the T/C (dose: 100.0 mg/kg/injection, schedule: Q01DX009 (ip), vehicle: gum acacia) was 112 % of control and the T/C (dose: 200.0 mg/kg/injection, schedule: Q01DX009 (ip), vehicle: gum acacia) was 107 % of control.

For C=C1CCN(c2ccc(F)cc2)C1=O, the T/C (dose: 4.0 mg/kg/injection, schedule: Q01DX009 (ip), vehicle: saline + alcohol) was 104 % of control, the T/C (dose: 16.0 mg/kg/injection, schedule: Q01DX009 (ip), vehicle: saline + alcohol) was 100 % of control and the T/C (dose: 32.0 mg/kg/injection, schedule: Q01DX009 (ip), vehicle: saline + alcohol) was 112 % of control. The T/C (dose: 64.0 mg/kg/injection, schedule: Q01DX009 (ip), vehicle: saline + alcohol) was 110 % of control.

With Cc1c(Cl)cccc1NC(=O)Nc1ccc(Cl)c(Cl)c1 the T/C [5] was 105 % of control, the T/C [6] was 92 % of control and the T/C [7] was 91 % of control.

In the case of Cc1ccc(NC(=O)Nc2ccccc2)cc1Cl, the T/C (dose: 100.0 mg/kg/injection, schedule: Q01DX008 (sc), vehicle: olive oil, sesame oil, peanut oil) is reported as 99 % of control, the T/C (dose: 200.0 mg/kg/injection, schedule: Q01DX008 (sc), vehicle: olive oil, sesame oil, peanut oil) is reported as 96 % of control and the T/C (dose: 400.0 mg/kg/injection, schedule: Q01DX008 (sc), vehicle: olive oil, sesame oil, peanut oil) is reported as 98 % of control.

With COC(=O)C(CCCN=C(N)N)NC(=O)OCc1ccccc1 (stereo not drawn) the T/C (dose: 100.0 mg/kg/injection, schedule: Q04DX003 (ip), vehicle: saline) was 100 % of control and the T/C (dose: 200.0 mg/kg/injection, schedule: Q04DX003 (ip), vehicle: saline) was 95 % of control.

CC(C)CNN(CC(C)C)C(N)=O was tested, and the T/C [8] was 111 % of control and the T/C [9] was 86 % of control.

COC(=O)/C=C/C=C(c1ccccc1)c1ccccc1 was tested, and the T/C [10] was 94 % of control, the T/C [8] was 100 % of control and the T/C [9] was 94 % of control. The T/C [11] was 94 % of control.

COc1cc(/C=N/NC(=O)N/N=C/c2cc(OC)c(OC)c(OC)c2)cc(OC)c1OC was tested, and the T/C [2] was 93 % of control and the T/C [3] was 90 % of control.

In the case of COC(=O)[C@H]1[C@H]2C[C@@H]3c4[nH]c5cc(OC)ccc5c4CCN3C[C@H]2C[C@@H](OC(=O)c2cccc(N(C)C)c2)[C@@H]1OC, the T/C (dose: 0.39 mg/kg/injection, schedule: Q01DX009 (ip), vehicle: Klucel (hydroxypropylcellulose) (HPC)) is reported as 93 % of control, the T/C (dose: 0.78 mg/kg/injection, schedule: Q01DX009 (ip), vehicle: Klucel (hydroxypropylcellulose) (HPC)) is reported as 91 % of control and 94 % of control and the T/C (dose: 1.56 mg/kg/injection, schedule: Q01DX009 (ip), vehicle: Klucel (hydroxypropylcellulose) (HPC)) is reported as 97 % of control and 116 % of control. For the same compound, the T/C [12] was 94 % of control.

In the case of CC(Cc1ccccc1)NC1CC2CCC1C2 (stereo not drawn), the T/C [13] is reported as 101 % of control, the T/C [14] is reported as 102 % of control and the T/C (dose: 50.0 mg/kg/injection, schedule: Q01DX009 (ip), vehicle: saline) is reported as 101 % of control.

In the case of CCC(CC)CC1CN2CCc3cc(OC)c(OC)cc3C2CC1(O)CC (stereo not drawn), the T/C [12] is reported as 102 % of control, the T/C (dose: 6.25 mg/kg/injection, schedule: Q01DX009 (ip), vehicle: Klucel (hydroxypropylcellulose) (HPC)) is reported as 102 % of control and the T/C [5] is reported as 102 % of control. The T/C [6] was 106 % of control.

CC(CN=Cc1ccccc1O)N=Cc1ccccc1O (stereo not drawn) was tested, and the T/C [5] was 91 % of control, the T/C [6] was 88 % of control and the T/C [7] was 87 % of control. The T/C [2] was 89 % of control.

With O=Nc1c(O)ccc2ccccc12 the T/C [6] was 90 % of control and the T/C [7] was 93 % of control.

With [Cl][Ge]([c]1ccccc1)([c]1ccccc1)[c]1ccccc1 the T/C [2] was 96 % of control, the T/C [3] was 96 % of control and the T/C [4] was 100 % of control.

For [CH3][Sn]([CH3])([CH3])[O]C(=O)CCl, the T/C (dose: 0.02 mg/kg/injection, schedule: Q01DX009 (ip), vehicle: saline) was 104 % of control, the T/C (dose: 0.05 mg/kg/injection, schedule: Q01DX009 (ip), vehicle: saline) was 107 % of control and the T/C (dose: 0.1 mg/kg/injection, schedule: Q01DX009 (ip), vehicle: saline) was 109 % of control. For the same compound, the T/C (dose: 0.19 mg/kg/injection, schedule: Q01DX009 (ip), vehicle: saline) was 104 % of control, the T/C (dose: 0.2 mg/kg/injection, schedule: Q01DX009 (ip), vehicle: saline) was 93 % of control and the T/C (dose: 0.75 mg/kg/injection, schedule: Q01DX009 (ip), vehicle: saline) was 104 % of control.

With NC1=NC(=O)C(c2ccccc2)O1 (stereo not drawn) the T/C [5] was 94 % of control, the T/C [6] was 97 % of control and the T/C [2] was 102 % of control.

In the case of CC/C(=C(\c1ccccc1)c1ccc(OCCN(C)C)cc1)c1ccccc1, the T/C (dose: 25.0 mg/kg/injection, schedule: Q01DX009 (ip), vehicle: suspension in saline) is reported as 97 % of control, the T/C (dose: 50.0 mg/kg/injection, schedule: Q01DX009 (ip), vehicle: suspension in saline) is reported as 93 % of control and the T/C (dose: 100.0 mg/kg/injection, schedule: Q01DX009 (ip), vehicle: suspension in saline) is reported as 91 % of control. For the same compound, the T/C (dose: 200.0 mg/kg/injection, schedule: Q01DX009 (ip), vehicle: suspension in saline) was 86 % of control.

In the case of COC1=CC(=O)C(C2CC(=O)c3c(O)cc(O)cc3O2)=CC1=O (stereo not drawn), the T/C (dose: 3.13 mg/kg/injection, schedule: Q01DX009 (ip), vehicle: saline with Tween-80) is reported as 102 % of control, the T/C (dose: 6.25 mg/kg/injection, schedule: Q01DX009 (ip), vehicle: saline with Tween-80) is reported as 91 % of control and the T/C (dose: 12.5 mg/kg/injection, schedule: Q01DX009 (ip), vehicle: saline with Tween-80) is reported as 89 % of control.

CS(=O)(=O)OCC(O)C(O)COS(C)(=O)=O (stereo not drawn) was tested, and the T/C [10] was 100 % of control, the T/C [8] was 102 % of control and the T/C [9] was 103 % of control and 114 % of control. For the same compound, the T/C (dose: 800.0 mg/kg/injection, schedule: Q01DX009 (ip), vehicle: saline with Tween-80) was 153 % of control.

For CN(C)CCN1C(=O)CC(c2ccccc2)Sc2ccccc21 (stereo not drawn), the T/C [15] was 115 % of control, the T/C [1] was 112 % of control and the T/C [13] was 107 % of control. The T/C [14] was 97 % of control.

With Oc1ccc(C2CCc3ccccc32)cc1 (stereo not drawn) the T/C [2] was 96 % of control, the T/C [3] was 96 % of control and the T/C [4] was 100 % of control.

For C=C1C(=O)O[C@@H]2[C@H](O)[C@@H](C)[C@@H]3C=CC(=O)[C@@]3(C)[C@H](OC(=O)C=C(C)C)[C@H]12, the T/C (dose: 2.5 mg/kg/injection, schedule: Q01DX009 (ip), vehicle: Klucel (hydroxypropylcellulose) (HPC)) was 104 % of control, the T/C [15] was 102 % of control and the T/C (dose: 5.0 mg/kg/injection, schedule: Q01DX009 (ip), vehicle: Klucel (hydroxypropylcellulose) (HPC)) was 119 % of control. For the same compound, the T/C [1] was 86 % of control and the T/C (dose: 10.0 mg/kg/injection, schedule: Q01DX009 (ip), vehicle: Klucel (hydroxypropylcellulose) (HPC)) was 113 % of control.

With Nc1ccccc1SC1CC(=O)N(c2ccccc2Cl)C1=O (stereo not drawn) the T/C [2] was 94 % of control and the T/C [3] was 86 % of control.

With CCSCCC1(CCC(C)C)C(=O)NC(=Nc2ccccc2)NC1=O (stereo not drawn) the T/C [10] was 91 % of control, the T/C [8] was 89 % of control and the T/C [11] was 96 % of control.
